Laboratory results as given in PubChem BioAssay AID248 (DTP/NCI, 2004).
“And” between values parts separate entries of the source, which are not always exact repeats. Identical values can stand only once. Inconclusive results and toxic doses are left out. No stated cut-off is given here; in the data, active means T/C of 150% or more; inactive means T/C below 125%.

Test system: L1210 leukemia ip in BDF1 mice, survival T/C
Test: NCI In Vivo Anticancer Drug Screen. Data for tumor model L1210 Leukemia (intraperitoneal) in B6D2F1 (BDF1) mice
Conditions: endpoint: mean survival time, higher = longer survival
Method in brief: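 In this screen, tumor-bearing mice given compound are compared to those given vehicle, and their survival values are reported as a treated-to-control quotient.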

[1] = dose: 25.0 mg/kg/injection, schedule: Q01DX009 (ip), vehicle: Klucel (hydroxypropylcellulose) (HPC)
[2] = dose: 100.0 mg/kg/injection, schedule: Q01DX009 (ip), vehicle: Klucel (hydroxypropylcellulose) (HPC)
[3] = dose: 12.5 mg/kg/injection, schedule: Q04DX003 (ip), vehicle: Klucel (hydroxypropylcellulose) (HPC)
[4] = dose: 25.0 mg/kg/injection, schedule: Q04DX003 (ip), vehicle: Klucel (hydroxypropylcellulose) (HPC)
[5] = dose: 100.0 mg/kg/injection, schedule: Q04DX003 (ip), vehicle: Klucel (hydroxypropylcellulose) (HPC)
[6] = dose: 100.0 mg/kg/injection, schedule: Q01DX009 (ip), vehicle: saline
[7] = dose: 200.0 mg/kg/injection, schedule: Q01DX009 (ip), vehicle: saline
[8] = dose: 100.0 mg/kg/injection, schedule: Q01DX001 (ip), vehicle: saline
[9] = dose: 200.0 mg/kg/injection, schedule: Q01DX001 (ip), vehicle: saline
[10] = dose: 400.0 mg/kg/injection, schedule: Q01DX001 (ip), vehicle: saline
[11] = dose: 100.0 mg/kg/injection, schedule: Q04DX003 (ip), vehicle: saline with Tween-80
[12] = dose: 100.0 mg/kg/injection, schedule: Q04DX002 (ip), vehicle: saline
[13] = dose: 200.0 mg/kg/injection, schedule: Q04DX002 (ip), vehicle: saline
[14] = dose: 50.0 mg/kg/injection, schedule: Q01DX009 (ip), vehicle: saline with Tween-80
[15] = dose: 100.0 mg/kg/injection, schedule: Q01DX009 (ip), vehicle: saline with Tween-80
[16] = dose: 200.0 mg/kg/injection, schedule: Q01DX009 (ip), vehicle: saline with Tween-80
[17] = dose: 200.0 mg/kg/injection, schedule: Q04DX003 (ip), vehicle: saline with Tween-80
[18] = dose: 400.0 mg/kg/injection, schedule: Q04DX003 (ip), vehicle: saline with Tween-80
[19] = dose: 200.0 mg/kg/injection, schedule: Q04DX003 (ip), vehicle: Klucel (hydroxypropylcellulose) (HPC)
[20] = dose: 100.0 mg/kg/injection, schedule: Q01DX001 (ip), vehicle: carboxymethylcellulose (CMC)
[21] = dose: 200.0 mg/kg/injection, schedule: Q01DX001 (ip), vehicle: carboxymethylcellulose (CMC)
[22] = dose: 400.0 mg/kg/injection, schedule: Q01DX001 (ip), vehicle: carboxymethylcellulose (CMC)

Measured: T/C

N#CCCn1cnc2c(=S)nc[nH]c21
inactive: dose: 2.0 mg/kg/injection, schedule: Q01DX Z (ip), vehicle: other 97 % of control | dose: 4.0 mg/kg/injection, schedule: Q01DX Z (ip), vehicle: other 97 % of control and 100 % of control | dose: 8.0 mg/kg/injection, schedule: Q01DX Z (ip), vehicle: other 100 % of control and 106 % of control | dose: 16.0 mg/kg/injection, schedule: Q01DX Z (ip), vehicle: other 101 % of control and 102 % of control | dose: 32.0 mg/kg/injection, schedule: Q01DX Z (ip), vehicle: other 96 % of control and 98 % of control

CC(C)(C)NP(=O)(NC(C)(C)C)c1ccc([N+](=O)[O-])cc1
inactive: dose: 100.0 mg/kg/injection, schedule: Q04DX003 (ip), vehicle: acetone 100 % of control | dose: 400.0 mg/kg/injection, schedule: Q04DX003 (ip), vehicle: acetone 93 % of control

CCc1cccc(OS(=O)(=O)c2ccc([N+](=O)[O-])cc2)c1
inactive: [1] 95 % of control | [2] 92 % of control

COC(=O)CCCc1c[nH]c2ccccc12
inactive: dose: 100.0 mg/kg/injection, schedule: Q01DX009 (ip), vehicle: other 93 % of control | dose: 200.0 mg/kg/injection, schedule: Q01DX009 (ip), vehicle: other 100 % of control | dose: 400.0 mg/kg/injection, schedule: Q01DX009 (ip), vehicle: other 90 % of control

CCOC(=O)c1cc([N+](=O)[O-])cc2c1-c1c(cc([N+](=O)[O-])cc1[N+](=O)[O-])C2=O
inactive: [3] 98 % of control | [4] 101 % of control | dose: 50.0 mg/kg/injection, schedule: Q04DX003 (ip), vehicle: Klucel (hydroxypropylcellulose) (HPC) 103 % of control | [5] 96 % of control

CCOC(=O)CC(C)=O.[Cu+2]
inactive: dose: 6.25 mg/kg/injection, schedule: Q01DX009 (ip), vehicle: saline 96 % of control | dose: 12.5 mg/kg/injection, schedule: Q01DX009 (ip), vehicle: saline 104 % of control | [3] 94 % of control | dose: 25.0 mg/kg/injection, schedule: Q01DX009 (ip), vehicle: saline 90 % of control | [4] 96 % of control

Nc1n[nH]c2cccc(Cl)c12
inactive: dose: 50.0 mg/kg/injection, schedule: Q01DX009 (ip), vehicle: saline 96 % of control | [6] 104 % of control | [7] 96 % of control

C=CC(=O)NCNC(=O)C=C
inactive: dose: 50.0 mg/kg/injection, schedule: Q04DX003 (ip), vehicle: carboxymethylcellulose (CMC) 100 % of control | [8] 97 % of control | dose: 100.0 mg/kg/injection, schedule: Q04DX003 (ip), vehicle: carboxymethylcellulose (CMC) 110 % of control | [9] 101 % of control | [10] 113 % of control

CC1C(=O)OC(C)(C)C1(C)C (stereo not drawn)
inactive: dose: 25.0 mg/kg/injection, schedule: Q04DX003 (ip), vehicle: saline with Tween-80 108 % of control | dose: 50.0 mg/kg/injection, schedule: Q04DX003 (ip), vehicle: saline with Tween-80 96 % of control | [11] 96 % of control

C#CCN(CC#C)C(C)=O
inactive: [12] 91 % of control | [13] 94 % of control

CN1CCC=C(COC(=O)C(C)(C)C)C1
inactive: dose: 75.0 mg/kg/injection, schedule: Q01DX001 (ip), vehicle: carboxymethylcellulose (CMC) 92 % of control | dose: 150.0 mg/kg/injection, schedule: Q01DX001 (ip), vehicle: carboxymethylcellulose (CMC) 87 % of control | dose: 300.0 mg/kg/injection, schedule: Q01DX001 (ip), vehicle: carboxymethylcellulose (CMC) 95 % of control

CCOP(=O)(OCC)Oc1ccc(S(C)=O)cc1 (stereo not drawn)
inactive: dose: 5.0 mg/kg/injection, schedule: Q01DX001 (ip), vehicle: saline 114 % of control

COC(=O)C(CSCSC)NC(=O)Nc1ccc(F)cc1 (stereo not drawn)
inactive: [14] 98 % of control | [15] 93 % of control | [11] 95 % of control | [16] 94 % of control | [17] 93 % of control | [18] 95 % of control

NC1=NN(c2ccccc2)C(=O)/C1=C\c1ccccc1
inactive: [14] 102 % of control | [15] 98 % of control | [16] 91 % of control

O=C(O)c1cc(-c2ccc(Cl)cc2)nc2c(-c3ccccc3)cccc12
inactive: [11] 95 % of control | [17] 95 % of control | [18] 90 % of control

OC(Cc1ccccc1)(c1ccccc1)c1cccc2ccccc12 (stereo not drawn)
inactive: [2] 90 % of control | [5] 100 % of control | dose: 200.0 mg/kg/injection, schedule: Q01DX009 (ip), vehicle: Klucel (hydroxypropylcellulose) (HPC) 95 % of control | [19] 109 % of control | dose: 400.0 mg/kg/injection, schedule: Q01DX009 (ip), vehicle: Klucel (hydroxypropylcellulose) (HPC) 92 % of control | dose: 400.0 mg/kg/injection, schedule: Q04DX003 (ip), vehicle: Klucel (hydroxypropylcellulose) (HPC) 97 % of control

NC(CSS(=O)(=O)O)=NCCSc1ccc(Cl)cc1
inactive: dose: 6.25 mg/kg/injection, schedule: Q01DX009 (ip), vehicle: Klucel (hydroxypropylcellulose) (HPC) 95 % of control | dose: 12.5 mg/kg/injection, schedule: Q01DX009 (ip), vehicle: Klucel (hydroxypropylcellulose) (HPC) 104 % of control | dose: 12.5 mg/kg/injection, schedule: Q04DX002 (ip), vehicle: Klucel (hydroxypropylcellulose) (HPC) 100 % of control | [1] 107 % of control | dose: 25.0 mg/kg/injection, schedule: Q04DX002 (ip), vehicle: Klucel (hydroxypropylcellulose) (HPC) 100 % of control

COc1ccc2c(c1O)C13CCN(C)C(C2)C1CCC1(C3)OCCO1 (stereo not drawn)
inactive: [8] 95 % of control | [6] 100 % of control | [9] 104 % of control | [7] 103 % of control | [10] 98 % of control

CC(C)CCC[C@@H](C)[C@H]1CC[C@H]2[C@@H]3C[C@@H](Br)[C@@]4(Br)C[C@@H](Cl)CC[C@]4(C)[C@H]3CC[C@]12C
inactive: dose: 50.0 mg/kg/injection, schedule: Q01DX001 (ip), vehicle: other 102 % of control | dose: 100.0 mg/kg/injection, schedule: Q01DX001 (ip), vehicle: other 107 % of control | dose: 200.0 mg/kg/injection, schedule: Q01DX001 (ip), vehicle: other 96 % of control | dose: 400.0 mg/kg/injection, schedule: Q01DX001 (ip), vehicle: other 96 % of control

ClCCCOC1CCCCO1 (stereo not drawn)
inactive: [5] 89 % of control | [11] 107 % of control | [19] 95 % of control | [17] 96 % of control | [18] 96 % of control

CC(C)(C)NC(=O)NN(c1ccccc1)C1CCS(=O)(=O)C1 (stereo not drawn)
inactive: [12] 108 % of control | [13] 97 % of control | dose: 400.0 mg/kg/injection, schedule: Q04DX002 (ip), vehicle: saline 97 % of control

OC1C(SCc2ccccc2)OCC2OC3(CCCCC3)OC21 (stereo not drawn)
inactive: [8] 100 % of control | [9] 102 % of control | [10] 104 % of control

N#Cc1c(CBr)ccc2ccccc12
inactive: dose: 75.0 mg/kg/injection, schedule: Q01DX001 (ip), vehicle: saline 92 % of control

CCN(CC)C(=O)OCCCN(C)C
inactive: dose: 50.0 mg/kg/injection, schedule: Q01DX009 (ip), vehicle: Klucel (hydroxypropylcellulose) (HPC) 96 % of control | dose: 100.0 mg/kg/injection, schedule: Q04DX003 (ip), vehicle: saline 105 % of control | dose: 200.0 mg/kg/injection, schedule: Q04DX003 (ip), vehicle: saline 105 % of control

CCC(C)C(NC(=O)C1CSC(C)(C)N1C=O)C(=O)OC1CCCCC1 (stereo not drawn)
inactive: [11] 98 % of control | [17] 97 % of control | [18] 101 % of control

CC[Si](C)(C)c1ccc(CCN2CC2)s1
inactive: [20] 113 % of control

Clc1ccc(N=Cc2ccccc2)cn1
inactive: dose: 50.0 mg/kg/injection, schedule: Q01DX001 (ip), vehicle: carboxymethylcellulose (CMC) 105 % of control | [20] 88 % of control | [21] 111 % of control | [22] 100 % of control

COc1cc(C)c(O)c(C[P+](c2ccccc2)(c2ccccc2)c2ccccc2)c1
inactive: [11] 91 % of control | [17] 94 % of control

CC1(C)OC(CO)C2OC(C)(C)OC(CO)C2O1 (stereo not drawn)
inactive: [20] 98 % of control | [21] 98 % of control | [22] 95 % of control
